Measurements taken from ChEMBL document CHEMBL1201862, “PubChem BioAssay data set” (2004).
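Cultured in 96-well plates, cells were exposed to test compound for 48 hours across five concentrations. The concentration for 50% growth inhibition is given as GI50.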 Calls of active or inactive are those of the source. Cut-off read from the data, not from the text of the source: active = GI50 up to about 1.1 µM and inactive = higher.

Legend:
Test in all cases: NCI anticancer screen, dose series, 48 h
TK-10 = system: TK-10
T47D = system: T47D
NCI-H460 = system: NCI-H460
NCI/ADR-RES = system: NCI/ADR-RES
SK-OV-3 = system: SK-OV-3
RPMI-8226 = system: RPMI-8226
UACC-62 = system: UACC-62
MDA-N = system: MDA-N
BT-549 = system: BT-549
SF-539 = system: SF-539
SR = system: SR
HT-29 = system: HT-29
CCRF-CEM = system: CCRF-CEM
SK-MEL-28 = system: SK-MEL-28
MOLT-4 = system: MOLT-4
RXF 393 = system: RXF 393
SF-268 = system: SF-268
Hs-578T = system: Hs-578T
NCI-H522 = system: NCI-H522
HCT-15 = system: HCT-15
SF-295 = system: SF-295
M14 = system: M14
U-251 = system: U-251
CAKI-1 = system: CAKI-1
PC-3 = system: PC-3
ACHN = system: ACHN
UACC-257 = system: UACC-257
HCT-116 = system: HCT-116
UO-31 = system: UO-31
SK-MEL-5 = system: SK-MEL-5
HL-60 = system: HL-60
OVCAR-3 = system: OVCAR-3
SW-620 = system: SW-620
SNB-75 = system: SNB-75
786-0 = system: 786-0
HOP-62 = system: HOP-62
COLO 205 = system: COLO 205
OVCAR-8 = system: OVCAR-8
NCI-H226 = system: NCI-H226
MDA-MB-435 = system: MDA-MB-435
KM12 = system: KM12
MDA-MB-231 = system: MDA-MB-231
A549 = system: A549
K562 = system: K562
SN12C = system: SN12C
EKVX = system: EKVX
MCF7 = system: MCF7
SNB-19 = system: SNB-19
LOX IMVI = system: LOX IMVI
Malme-3M = system: Malme-3M
IGROV-1 = system: IGROV-1
OVCAR-4 = system: OVCAR-4
HOP-92 = system: HOP-92
SK-MEL-2 = system: SK-MEL-2
DU-145 = system: DU-145
OVCAR-5 = system: OVCAR-5
NCI-H23 = system: NCI-H23
HCC 2998 = system: HCC 2998

SMILES: NC1=NCC(CN2CCCCC2)O1 (configuration not stated)
- GI50 (TK-10): > 100 µM (inactive)
- GI50 (T47D): > 100 µM (inactive)
- GI50 (NCI-H460): > 100 µM (inactive)
- GI50 (NCI/ADR-RES): > 100 µM (inactive)
- GI50 (SK-OV-3): 4.12 µM (inactive)
- GI50 (RPMI-8226): > 100 µM (inactive)
- GI50 (UACC-62): > 100 µM (inactive)
- GI50 (MDA-N): > 100 µM (inactive)
- GI50 (BT-549): > 100 µM (inactive)
- GI50 (SF-539): > 100 µM (inactive)
- GI50 (SR): > 100 µM (inactive)
- GI50 (HT-29): > 100 µM (inactive)
- GI50 (CCRF-CEM): > 100 µM (inactive)
- GI50 (SK-MEL-28): > 100 µM (inactive)
- GI50 (MOLT-4): > 100 µM (inactive)
- GI50 (RXF 393): > 100 µM (inactive)
- GI50 (SF-268): > 100 µM (inactive)
- GI50 (Hs-578T): > 100 µM (inactive)
- GI50 (NCI-H522): > 100 µM (inactive)
- GI50 (HCT-15): > 100 µM
- GI50 (SF-295): > 100 µM (inactive)
- GI50 (M14): > 100 µM (inactive)
- GI50 (U-251): > 100 µM (inactive)
- GI50 (CAKI-1): > 100 µM (inactive)
- GI50 (PC-3): > 100 µM (inactive)
- GI50 (ACHN): > 100 µM (inactive)
- GI50 (UACC-257): > 100 µM (inactive)
- GI50 (HCT-116): > 100 µM (inactive)
- GI50 (UO-31): > 100 µM (inactive)
- GI50 (SK-MEL-5): > 100 µM (inactive)
- GI50 (HL-60): > 100 µM (inactive)
- GI50 (OVCAR-3): > 100 µM (inactive)
- GI50 (SW-620): > 100 µM (inactive)
- GI50 (SNB-75): > 100 µM (inactive)
- GI50 (786-0): > 100 µM (inactive)
- GI50 (HOP-62): > 100 µM (inactive)
- GI50 (COLO 205): > 100 µM (inactive)
- GI50 (OVCAR-8): > 100 µM (inactive)
- GI50 (NCI-H226): > 100 µM (inactive)
- GI50 (MDA-MB-435): > 100 µM (inactive)
- GI50 (KM12): > 100 µM (inactive)
- GI50 (MDA-MB-231): > 100 µM (inactive)
- GI50 (A549): > 100 µM (inactive)
- GI50 (K562): > 100 µM (inactive)
- GI50 (SN12C): > 100 µM (inactive)
- GI50 (EKVX): > 100 µM (inactive)
- GI50 (MCF7): > 100 µM (inactive)
- GI50 (SNB-19): > 100 µM (inactive)
- GI50 (LOX IMVI): > 100 µM (inactive)
- GI50 (Malme-3M): > 100 µM (inactive)
- GI50 (IGROV-1): > 100 µM (inactive)

SMILES: CC(CCOc1c2ccoc2cc2oc(=O)ccc12)C1=CC(=O)C(C)(C)O1 (configuration not stated)
- GI50 (TK-10): > 100 µM (inactive)
- GI50 (NCI-H460): > 100 µM (inactive)
- GI50 (NCI/ADR-RES): > 100 µM (inactive)
- GI50 (SK-OV-3): > 100 µM (inactive)
- GI50 (RPMI-8226): > 100 µM (inactive)
- GI50 (UACC-62): > 100 µM (inactive)
- GI50 (MDA-N): > 100 µM (inactive)
- GI50 (BT-549): 71 µM (inactive)
- GI50 (OVCAR-4): 42 µM (inactive)
- GI50 (SF-539): > 100 µM (inactive)
- GI50 (SR): > 100 µM (inactive)
- GI50 (HT-29): > 100 µM (inactive)
- GI50 (CCRF-CEM): > 100 µM (inactive)
- GI50 (SK-MEL-28): > 100 µM (inactive)
- GI50 (HOP-92): > 100 µM (inactive)
- GI50 (MOLT-4): > 100 µM (inactive)
- GI50 (RXF 393): > 100 µM (inactive)
- GI50 (SF-268): > 100 µM (inactive)
- GI50 (Hs-578T): > 100 µM (inactive)
- GI50 (NCI-H522): 13.9 µM (inactive)
- GI50 (HCT-15): > 100 µM
- GI50 (SK-MEL-2): > 100 µM (inactive)
- GI50 (SF-295): > 100 µM (inactive)
- GI50 (M14): > 100 µM (inactive)
- GI50 (U-251): > 100 µM (inactive)
- GI50 (CAKI-1): > 100 µM (inactive)
- GI50 (PC-3): > 100 µM (inactive)
- GI50 (ACHN): > 100 µM (inactive)
- GI50 (UACC-257): > 100 µM (inactive)
- GI50 (HCT-116): > 100 µM (inactive)
- GI50 (DU-145): > 100 µM (inactive)
- GI50 (UO-31): > 100 µM (inactive)
- GI50 (SK-MEL-5): > 100 µM (inactive)
- GI50 (HL-60): > 100 µM (inactive)
- GI50 (OVCAR-3): > 100 µM (inactive)
- GI50 (SW-620): > 100 µM (inactive)
- GI50 (786-0): > 100 µM (inactive)
- GI50 (OVCAR-5): > 100 µM (inactive)
- GI50 (HOP-62): > 100 µM (inactive)
- GI50 (NCI-H23): > 100 µM (inactive)
- GI50 (COLO 205): > 100 µM (inactive)
- GI50 (OVCAR-8): > 100 µM (inactive)
- GI50 (NCI-H226): > 100 µM (inactive)
- GI50 (MDA-MB-435): > 100 µM (inactive)
- GI50 (KM12): > 100 µM (inactive)
- GI50 (MDA-MB-231): > 100 µM (inactive)
- GI50 (A549): > 100 µM (inactive)
- GI50 (K562): > 100 µM (inactive)
- GI50 (SN12C): > 100 µM (inactive)
- GI50 (EKVX): > 100 µM (inactive)
- GI50 (MCF7): > 100 µM (inactive)
- GI50 (SNB-19): > 100 µM (inactive)
- GI50 (LOX IMVI): > 100 µM (inactive)
- GI50 (Malme-3M): > 100 µM (inactive)
- GI50 (IGROV-1): > 100 µM (inactive)
- GI50 (HCC 2998): > 100 µM (inactive)
